Assay results reported in US9107415B2, “2-(substituted-phenyl)-cyclopentane-1,3-dione compounds, and derivatives thereof” (Syngenta Limited, priority 2011, dated 2015).

Assays:
[1] = Biological Example 5B “RASP” soil persistence method; conditions: 18 Acres soil
Description: Field soil (of the type “18 Acres”, as described in Biological Example 5A and Table 5.1 above) is sieved to 2 mm. The sieved soil is wetted up with distilled water, mixing thoroughly until it reaches “field capacity”. […] Usually, the moisture content of the soil used is about 25%.
For each compound tested, 6×50 mL polypropylene centrifuge tubes containing 10 g±0.5 g of soil at field capacity are used. Each tube lid has a 2 mm hole to allow for air circulation during the incubation period.
4×10 microliters of treatment solutions of the compounds to be tested are applied to the surface of the soil in groups of 6 tubes. 4×10 microliter drops are also dispensed into the treatment check vials and these are diluted to 1 mL with acetonitrile; at this point additional samples can be prepared for HPLC method development if required.
Two of the tubes containing the treated soil are capped and immediately frozen as T0 (day zero) samples. The remaining four samples are capped with lids containing a 2 mm hole drilled into the lid and incubated in controlled environment cabinets for the correct time interval at 20°C., 80% relative humidity.
After both one and four weeks incubation, two tubes from each treatment are removed from the cabinets, the lids are replaced for ones lacking ventilation holes and the tubes are frozen. When the samples are ready for analysis, a zero time, 1 week and 4 week sample for each compound is removed from the freezer and allowed to thaw. Immediately after thawing, 40 mL of extraction solution is added to the samples.
Samples are extracted using a mixture such as 80:20 (v/v) acetonitrile/1 M ammonium hydroxide solution. […]
All samples from the test are analysed by UPLC-MS. […]
For each compound, the molecular ion giving the best sensitivity is chosen and a single ion monitoring method is set up. The method development samples are re-analysed using the selected ion monitoring methods to check that suitable sensitivity is obtained.
Degradation kinetics, and an estimated half-life (T½) of the compound in the soil, can then be calculated using simple first order assumptions.

[2] = system: Spring Barley “Harrington”; assay: Biological Example 4B post-emergence phytotoxicity on cereal crops; type: in vivo; conditions: 15 g/ha, cloquintocet-mexyl 50 g/ha, 14 DAA, technical compound in IF50 + Adigor, mean of two

SMILES: CC#Cc1cc(C)c(C2C(=O)CC(Cc3ccn(C)n3)C2=O)c(C)c1 (stereo not shown) [Compound A-19]
- RASP Test: % of compound remaining at 0 weeks ([1]; 0 weeks): 80%
- RASP Test: % of compound remaining at 1 week ([1]; 1 week incubation at 20°C): 79%
- RASP Test: % of compound remaining at 4 weeks ([1]; 4 weeks incubation at 20°C): 80%
- Spring Barley “Harrington” phytotoxicity (%) [2]: 3%
